According to article PMC11940557, “Integration of metabolomics and chemometrics with in-silico and in-vitro approaches to unravel SARS-Cov-2 inhibitors from South African plants” (PLOS One, 2025):

target: T1, SARS-CoV-2 3CLpro (3CL protease, MBP-tagged; main protease, Mpro) (Severe acute respiratory syndrome coronavirus 2, UniProt P0DTD1); test: fluorogenic protease substrate assay (ex […] / em […] nm); type: biochemical
T1 construct: gene rep

Row | SMILES | IC50 [nM]
1 | CC(=O)O[C@H]1[C@H](Oc2c(-c3ccc(O)c(O)c3)oc3cc(O)cc(O)c3c2=O)O[C@H](CO[C@@H]2O[C@@H](C)[C@H](O)[C@@H](O)[C@H]2O)[C@@H](O)[C@@H]1O [2”-O-acetylrutin] | 100
2 | O=C(O)CC(=O)OC[C@H]1O[C@@H](Oc2c(-c3ccc(O)c(O)c3)oc3cc(O)cc(O)c3c2=O)[C@H](O)[C@@H](O)[C@@H]1O [quercetin 3-(6”-malonyl-glucoside)] | 170
3 | CC(=O)OC[C@H]1O[C@@H](Oc2c(-c3ccc(O)c(O)c3)oc3cc(O)cc(O)c3c2=O)[C@H](O)[C@@H](O)[C@@H]1O [quercetin 3-O-(6“-acetyl-glucoside)] | 120
